Read-outs that look alike come from different tables or passages of the source.
Tests used:
[1] = system: triple negative breast cancer tumor; experiment: Barcode analysis in live and dead tumor cells after injection of liposome mixes; assay type: in vivo, BALB/c female mice; conditions: 5%, 1% or 0.1% of ETD liposome mixes; 48 hours post injection; patent regards it as likely artifact
Excerpt: FIGS. 1A-C: Detection of barcodes from liposome mixes with equal relative drug concentrations. Bar charts showing the potency of gemcitabine, cisplatin and doxorubicin against triple negative breast cancer tumors when the drugs are provided at (1A) 5%, (1B) 1%, and (1C) 0.1% of the effective therapeutic dose (ETD). Potency of the drugs was defined as the ratio of the amount of a barcode in dead cells to the amount of that barcode in live cells.
Each drug has its own specific effective therapeutic dose […], and in order to test efficacy it is reasonable that each liposome mix (a mix of all three types of liposomes to be injected together) should have the same relative amount of each drug. That is, in order to determine an ideal dose, batches of mixed liposomes were generated in which all three drugs were present in a concentration that was either 5%, 1% or 0.1% of the effective therapeutic dose. Table 2 provides the amounts (in ul) of each liposome batch that were added to the mix in order to provide each total dose.
Cell from a triple negative breast cancer tumor were transplanted to the fat pad of BALB/c female mice and allowed to grow to form tumors in the mice. The mice were separated into 3 groups and then each group was injected with the 5%, 1% or 0.1% liposome mixes. […]

4T1 cells [2] = conditions: cited from earlier work
4T1 cells [3] = conditions: cited from earlier work; remark: listed apart in the source

Row | SMILES | Effectiveness relative to the other two drugs [1] [fold] | Potency (ratio of barcode in dead cells to barcode in live cells), ranking [1] | Effect on tumor growth (4T1 cells [2]; at later time points) | Effect on tumor growth (4T1 cells [2]; within the first couple of days of treatment) | Sensitivity of 4T1 cells (4T1 cells [3]) | Resistance of 4T1 cells (4T1 cells [3])
1 | Nc1ccn([C@@H]2O[C@H](CO)[C@@H](O)C2(F)F)c(=O)n1 [Gemcitabine] | > 10 | most effective treatment | not be effective | retards tumor growth |  | 
2 | N.N.[Cl][Pt][Cl] [cisplatin] |  |  |  |  | highly sensitive | 
3 | COc1cccc2c1C(=O)c1c(O)c3c(c(O)c1C2=O)C[C@@](O)(C(=O)CO)C[C@@H]3O[C@H]1C[C@H](N)[C@H](O)[C@H](C)O1 [doxorubicin] |  |  |  |  | less so | become resistant
